Assay results taken from patent US10091997B2, “Composition for inhibition of insect host sensing” (Vanderbilt University, priority 2010, dated 2018).
Entries after “also recorded” stand apart in the source; their conditions may differ.

Experiments:
[1] = target: T1, AgORco (Anopheles gambiae, UniProt Q7QCC7); assay: whole-cell patch clamp, HEK293 cells stably expressing AgORco alone; format: cell-based
T1 construct: expressed in transfected cells
T1 sequence (Q7QCC7 1-478): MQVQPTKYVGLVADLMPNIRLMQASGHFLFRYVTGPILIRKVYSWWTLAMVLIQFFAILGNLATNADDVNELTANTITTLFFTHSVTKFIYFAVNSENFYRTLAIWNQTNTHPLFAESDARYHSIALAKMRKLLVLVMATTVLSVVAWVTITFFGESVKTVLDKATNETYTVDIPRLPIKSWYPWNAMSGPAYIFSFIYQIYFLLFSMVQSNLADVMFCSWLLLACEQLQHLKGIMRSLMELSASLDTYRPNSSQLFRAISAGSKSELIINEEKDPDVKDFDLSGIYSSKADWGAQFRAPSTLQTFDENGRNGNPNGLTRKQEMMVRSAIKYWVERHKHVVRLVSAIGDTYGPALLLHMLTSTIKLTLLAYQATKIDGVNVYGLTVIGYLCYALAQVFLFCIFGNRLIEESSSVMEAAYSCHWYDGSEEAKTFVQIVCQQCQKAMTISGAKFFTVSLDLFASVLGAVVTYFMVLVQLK
Description: (§1) Currents from OR-expressing HEK293 cells were amplified with an Axopatch 200b Amplifier (Axon Instruments) and digitized through a Digidata 1322A (Axon Instruments). Electrophysiological data was recorded and analyzed using pCLAMP 10 (Axon Instruments). Electrodes were fabricated from quartz tubing (Sutter Instruments) and pulled to 4-6 MΩ for whole cell recording. Electrodes were filled with internal solution (120 mM KCl, 30 mM D-glucose, 10 mM HEPES, 2 mM MgCl2, 1.1 mM EGTA, and 0.1 CaCl2 (pH 7.35, 280 mOsm). External (bath) solution contained 130 mM NaCl, 34 mM D-glucose, 10 mM HEPES, 1.5 mM CaCl2, 1.3 mM KH2PO4, and 0.5 MgSO4 (pH 7.35, 300 mOsm). Compounds were diluted in external solution and locally perfused to the recording cell using Perfusion Pencil (Automate Scientific) and controlled by a ValveLink 8.2 controller (Automate Scientific). Whole cell recordings were sampled at 10 kHz and filtered at 5 kHz. Outside-out patches were obtained using 10-15MΩ electrodes pulled from standard glass capillaries (World Precision Instruments) and fire-polished with an MF-830 micro forge (Narishige). Single channel recordings were sampled at 20 kHz. Recordings were reduced to 1 kHz and low-pass filtered at 500 Hz for display and analysis using QuB (SUNY at Buffalo).
To test the hypothesis that VUAA1 directly agonized AgORco, whole-cell patch clamp responses were examined in AgORco+AgOR10 expressing cells as well HEK293 cells stably expressing AgORco alone. […] The VUAA1-dependent currents in AgORco+AgOR10 cells resembled those resulting from application of benzaldehyde, an orthosteric agonist of AgOR10 (FIG. 3C) (Wang, 2010; Carey, 2010). AgORco+AgOR10 cells were more sensitive to VUAA1 than AgORco cells, producing inward currents at −5.0 log M, a concentration at which AgORco had no response. […] To investigate the specificity of VUAA1 agonism, the inventors transiently transfected HEK cells with the AgORco orthologs of Drosophila melanogaster and Heliothis virescens, DmOR83b and HvOR2 respectively.

[2] = test system: Un-transfected HEK293 cells; assay: whole-cell patch clamp, control HEK293 cells (un-transfected or GFP alone); format: cell-based, human
Description: as §1

[3] = target: T1, AgORco; assay: single-channel recording, outside-out patches from AgORco-expressing HEK293 cells; format: cell-based
Description: as §1
In the next set of studies, outside-out membrane patches were excised from AgORco-expressing cells to examine single-channel currents evoked by VUAA1 (FIG. 5A). Here, spontaneous channel opening was observed before VUAA1 stimulation, but with very low probability (Po=0.02) (FIG. 5B). During a 5 s application of VUAA1 channel opening probability increased to Po=0.38 (FIG. 5C). Subsequent to agonist washout, channel opening probability decreased to 0.00 (FIG. 5D). The average unitary current of AgORco was 1.3±0.3 pA (mean±st. dev.) (FIG. 5C, inset) which is consistent with earlier single-channel studies of insect ORs (Sato et al., 2008).

[4] = test system: AgORco-expressing neurons (CpB/C); assay: single sensillum recordings, capitate peg sensilla, CpB/C neurons; format: in vivo, Anopheles gambiae; conditions: delivered via glass recording electrode, adult females
Description: Single sensillum recordings were performed on 4-7 day old, non-bloodfed Anopheles gambiae females maintained on 10% sucrose and a 12/12 light dark cycle. Legs, wings and antennae were removed from cold-anesthetized females that were then restrained on double-stick tape with thread. A glass reference electrode filled with Sensillar lymph ringers (SLR)(Xu, 2005) was placed in the eye and the recording electrode filled with DMSO or VUAA1 diluted in SLR was used to puncture sensilla at their base. Responses were recorded and digitized using a Syntech IDAC-4 and analyzed with AutoSpike software (Syntech). New glass recording pipettes were used for every recording. Data was sampled at 12 kHz.
The inventors next performed single unit, extracellular electrophysiological recordings on adult female An. gambiae to determine whether VUAA1 could activate AgORco-expressing odorant receptor neurons (ORNs) in vivo. ORNs, which express AgORco and a conventional OR are enclosed within the hair-like sensilla present on olfactory tissues. […] CpA is clearly distinguished from CpB/C by its large action potential amplitude. The action potential amplitudes of CpB and CpC are much smaller and in some preparations indistinguishable from each other; as a result, the spike activity of CpB and CpC neurons were binned for data analysis. […]

CCc1ccc(NC(=O)CSc2nnc(-c3cccnc3)n2CC)cc1 [VUAA1]
whole-cell currents ([1]; AgORco alone cells, clamped at −60 mV): concentration-dependent inward currents | whole-cell response at −5.0 log M ([1]; AgORco alone cells, −5.0 log M): no response | reversal potential ([1]; AgORco alone, mean±s.e.m.): +0.4±1.1 mV | whole-cell currents in GFP alone cells ([2]; HEK cells transfected with GFP alone): no currents | whole-cell currents in control cells ([2]; control / un-transfected HEK293 cells): no responses were observed; also recorded: did not respond | channel opening probability (Po) during application ([3]; 5 s application of −4.0 log M, outside-out patch held at −60 mV, Po=0.02 before stimulation): 0.38 | average unitary current of AgORco ([3]; during VUAA1 application, mean±st. dev.): 1.3±0.3 pA | channel opening probability after agonist washout ([3]; outside-out patch, after washout): 0.00 | spike frequency of CpB/C neurons [4]: increased the spike frequency of CpB/C neurons in a dose-dependent manner
